The values that follow come from US10858356B2, “Pyrazolopyridine derivative having GLP-1 receptor agonist effect” (Chugai Seiyaku Kabushiki Kaisha, priority 2016, dated 2020).

In this assay the target is human GLP1R (Homo sapiens (Human), UniProt P43220). Put plainly: In vitro cAMP signal activation in human GLP1R stably-expressing cell line (hGLP1R-HEK293). Type of assay: cell-based. Particulars: cAMP concentration in hGLP1R-HEK293; 100% = 1 nM human GLP-1 (7-37).
Chain of human GLP1R (P43220 24-463): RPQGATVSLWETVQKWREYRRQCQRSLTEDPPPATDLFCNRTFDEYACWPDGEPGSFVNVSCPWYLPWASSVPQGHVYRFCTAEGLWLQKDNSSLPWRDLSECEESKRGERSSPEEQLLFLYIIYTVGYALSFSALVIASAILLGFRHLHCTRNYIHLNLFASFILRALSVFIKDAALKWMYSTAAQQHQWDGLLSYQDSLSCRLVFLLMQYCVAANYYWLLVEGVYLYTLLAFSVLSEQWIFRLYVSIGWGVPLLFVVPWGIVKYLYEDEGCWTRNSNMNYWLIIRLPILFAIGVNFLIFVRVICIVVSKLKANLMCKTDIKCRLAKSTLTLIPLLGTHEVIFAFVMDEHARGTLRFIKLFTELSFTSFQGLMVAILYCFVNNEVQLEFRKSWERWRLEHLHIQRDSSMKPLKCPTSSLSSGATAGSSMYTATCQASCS
A word on the EC50: it is the concentration that produces a half-maximal response. A low value points to greater potency. `Cc1cc(-n2nc3c(c2-n2ccn(-c4ccc5c(cnn5CCF)c4)c2=O)[C@H](C)N(C(=O)c2cc4cc(C5CCOCC5)ccc4n2[C@@]2(c4noc(=O)[nH]4)C[C@@H]2C)CC3)cc(C)c1F` [Example 26, 3-[(1S,2S)-1-[2-[(4S)-2-(4-fluoro-3,5-dimethylphenyl)-3-[3-[1-(2-fluoroethyl)indazol-5-yl]-2-oxoimidazol-1-yl]-4-methyl-6,7-dihydro-4H-pyrazolo[4,3-c]pyridine-5-carbonyl]-5-(oxan-4-yl)indol-1-yl]-2-methylcyclopropyl]-4H-1,2,4-oxadiazol-5-one] registered a 50% effective concentration (EC50) of 0.77 nM. That is a sub-nanomolar value. Then `COc1cc(-n2ccn(-c3c4c(nn3-c3cc(C)c(F)c(C)c3)CCN(C(=O)c3cc5cc(C6CCOCC6)ccc5n3[C@@]3(c5noc(=O)[nH]5)C[C@@H]3C)[C@H]4C)c2=O)ccc1OC(C)(C)CO` [Example 20, 3-[(1S,2S)-1-[2-[(4S)-2-(4-fluoro-3,5-dimethylphenyl)-3-[3-[4-(1-hydroxy-2-methylpropan-2-yl)oxy-3-methoxyphenyl]-2-oxoimidazol-1-yl]-4-methyl-6,7-dihydro-4H-pyrazolo[4,3-c]pyridine-5-carbonyl]-5-(oxan-4-yl)indol-1-yl]-2-methylcyclopropyl]-4H-1,2,4-oxadiazol-5-one], with 1.9 nM; and `COCCN(C(C)=O)C12C3C4C1C1C2C3C41n1ccn(-c2c3c(nn2-c2cc(C)c(F)c(C)c2)CCN(C(=O)c2cc4cc(C5CCOCC5)ccc4n2[C@@]2(c4noc(=O)[nH]4)C[C@@H]2C)[C@H]3C)c1=O` (stereo partly drawn) [compound 57, N-[4-[3-[(4S)-2-(4-fluoro-3,5-dimethylphenyl)-4-methyl-5-[1-[(1S,2S)-2-methyl-1-(5-oxo-4H-1,2,4-oxadiazol-3-yl)cyclopropyl]-5-(oxan-4-yl)indole-2-carbonyl]-6,7-dihydro-4H-pyrazolo[4,3-c]pyridin-3-yl]-2-oxoimidazol-1-yl]cuban-1-yl]-N-(2-methoxyethyl)acetamide], with 8.1 nM. In turn, `COc1nccc(-c2ccc3c(c2)cc(C(=O)N2CCc4nn(-c5cc(C)c(F)c(C)c5)c(-n5ccn(-c6ccc7c(cnn7C)c6)c5=O)c4[C@@H]2C)n3[C@@]2(c3noc(=O)[nH]3)C[C@@H]2C)c1C` [Example 12, 3-[(1S,2S)-1-[2-[(4S)-2-(4-fluoro-3,5-dimethylphenyl)-4-methyl-3-[3-(1-methylindazol-5-yl)-2-oxoimidazol-1-yl]-6,7-dihydro-4H-pyrazolo[4,3-c]pyridine-5-carbonyl]-5-(2-methoxy-3-methylpyridin-4-yl)indol-1-yl]-2-methylcyclopropyl]-4H-1,2,4-oxadiazol-5-one] yielded an EC50 of 2.7 nM.

As to `CCS(=O)(=O)c1ccc(-n2ccn(-c3c4c(nn3-c3cc(C)c(F)c(C)c3)CCN(C(=O)c3cc5cc(C6CCOCC6)ccc5n3[C@@]3(c5noc(=O)[nH]5)CC3C)[C@H]4C)c2=O)cc1` (stereo in doubt) [Example 21, 3-[(1S,2S)-1-[2-[(4S)-3-[3-(4-ethylsulfonylphenyl)-2-oxoimidazol-1-yl]-2-(4-fluoro-3,5-dimethylphenyl)-4-methyl-6,7-dihydro-4H-pyrazolo[4,3-c]pyridine-5-carbonyl]-5-(oxan-4-yl)indol-1-yl]-2-methylcyclopropyl]-4H-1,2,4-oxadiazol-5-one], the response was half-maximal at 1.6 nM (EC50).

The compound `Cc1cc(-n2nc3c(c2-n2ccn(-c4ccc5c(cnn5[C@H]5CCOC5)c4)c2=O)[C@H](C)N(C(=O)c2cc4cc(-c5ccnc(C)c5F)ccc4n2[C@@]2(c4noc(=O)[nH]4)C[C@@H]2C)CC3)cc(C)c1F` [Example 14, 3-[(1S,2S)-1-[2-[(4S)-2-(4-fluoro-3,5-dimethylphenyl)-4-methyl-3-[2-oxo-3-[1-[(3S)-oxolan-3-yl]indazol-5-yl]imidazol-1-yl]-6,7-dihydro-4H-pyrazolo[4,3-c]pyridine-5-carbonyl]-5-(3-fluoro-2-methylpyridin-4-yl)indol-1-yl]-2-methylcyclopropyl]-4H-1,2,4-oxadiazol-5-one] gave an EC50 of 2.3 nM. `COCCn1ncc2cc(-n3ccn(-c4c5c(nn4-c4cc(C)c(F)c(C)c4)CCN(C(=O)c4cc6cc(N7CCOC(C)(C)C7)ccc6n4[C@@]4(c6noc(=O)[nH]6)C[C@@H]4C)C5)c3=O)ccc21` [Example 7, 3-[(1S,2S)-1-[5-(2,2-dimethylmorpholin-4-yl)-2-[2-(4-fluoro-3,5-dimethylphenyl)-3-[3-[1-(2-methoxyethyl)indazol-5-yl]-2-oxoimidazol-1-yl]-6,7-dihydro-4H-pyrazolo[4,3-c]pyridine-5-carbonyl]indol-1-yl]-2-methylcyclopropyl]-4H-1,2,4-oxadiazol-5-one] had an EC50 of 3.2 nM. In the case of `CC[C@H]1CN(c2ccc3c(c2)cc(C(=O)N2CCc4nn(-c5cc(C)c(F)c(C)c5)c(-n5ccn(-c6ccc7c(cnn7C)c6)c5=O)c4C2)n3[C@@]2(c3noc(=O)[nH]3)C[C@@H]2C)CCO1` [compound 53], the 50% effective concentration (EC50) is 2.9 nM. To `Cc1cc(-n2nc3c(c2-n2ccn(-c4ccc5c(cnn5CC(F)(F)F)c4F)c2=O)[C@H](C)N(C(=O)c2cc4cc([C@H]5CCOC(C)(C)C5)ccc4n2[C@@]2(c4noc(=O)[nH]4)C[C@@H]2C)CC3)cc(C)c1Cl` [Example 42, 3-[(1S,2S)-1-[2-[(4S)-2-(4-chloro-3,5-dimethylphenyl)-3-[3-[4-fluoro-1-(2,2,2-trifluoroethyl)indazol-5-yl]-2-oxoimidazol-1-yl]-4-methyl-6,7-dihydro-4H-pyrazolo[4,3-c]pyridine-5-carbonyl]-5-[(4S)-2,2-dimethyloxan-4-yl]indol-1-yl]-2-methylcyclopropyl]-4H-1,2,4-oxadiazol-5-one] belongs 1.9 nM; to `Cc1cc(-n2nc3c(c2-n2ccn(-c4ccc5c(cnn5C)c4)c2=O)[C@H](C)N(C(=O)c2cc4cc([C@H]5CCOC(C)(C)C5)ccc4n2[C@@]2(c4noc(=O)[nH]4)C[C@@H]2C)CC3)cc(C)c1F` [compound 66, 3-[(1S,2S)-1-[5-[(4S)-2,2-dimethyloxan-4-yl]-2-[(4S)-2-(4-fluoro-3,5-dimethylphenyl)-4-methyl-3-[3-(1-methylindazol-5-yl)-2-oxoimidazol-1-yl]-6,7-dihydro-4H-pyrazolo[4,3-c]pyridine-5-carbonyl]indol-1-yl]-2-methylcyclopropyl]-4H-1,2,4-oxadiazol-5-one], 0.81 nM.

Compound `Cc1cc(-n2nc3c(c2-n2ccn(-c4ccc5c(cnn5C)c4)c2=O)CN(C(=O)c2cc4cc(C5CCOCC5)ccc4n2[C@@]2(c4noc(=O)[nH]4)C[C@@H]2C)CC3)cc(C)c1Cl` [compound 55, 3-[(1S,2S)-1-[2-[2-(4-chloro-3,5-dimethylphenyl)-3-[3-(1-methylindazol-5-yl)-2-oxoimidazol-1-yl]-6,7-dihydro-4H-pyrazolo[4,3-c]pyridine-5-carbonyl]-5-(oxan-4-yl)indol-1-yl]-2-methylcyclopropyl]-4H-1,2,4-oxadiazol-5-one] had an EC50 of 3.7 nM. In turn, `Cc1cc(-n2nc3c(c2-n2ccn(-c4ccc5c(cnn5CC(C)(C)O)c4F)c2=O)[C@H](C)N(C(=O)c2cc4cc(C5CCOCC5)ccc4n2[C@@]2(c4noc(=O)[nH]4)C[C@@H]2C)CC3)cc(C)c1F` [Example 30, 3-[(1S,2S)-1-[2-[(4S)-2-(4-fluoro-3,5-dimethylphenyl)-3-[3-[4-fluoro-1-(2-hydroxy-2-methylpropyl)indazol-5-yl]-2-oxoimidazol-1-yl]-4-methyl-6,7-dihydro-4H-pyrazolo[4,3-c]pyridine-5-carbonyl]-5-(oxan-4-yl)indol-1-yl]-2-methylcyclopropyl]-4H-1,2,4-oxadiazol-5-one] returned an EC50 of 1.4 nM.
